Assay results published in patent US20250381198A1 (Melt Pharmaceuticals, Inc., priority 2024, published 2025).

What was measured:
Assay type in all cases: in vivo, human
[1] = test system: subjects undergoing cataract extraction with lens replacement (CELR); assay: Phase 3: requirement for rescue sedation medication (first key secondary); conditions: for Requirement for rescue sedation medication - n: number of subjects
Procedure: Analysis of the first key secondary analysis of requirement for rescue sedation medication was performed. Requirement for rescue sedation medication was defined as a subject that received rescue sedation medication during the preoperative or intraoperative period. Group comparisons and statistics were analogous to those for TABLES 42-44.

[2] = test system: subjects undergoing cataract extraction with lens replacement (CELR); assay: Phase 3: preoperative procedural sedation responders (second key secondary); conditions: for Preoperative procedural sedation responder - n: number of subjects
[3] = test system: subjects undergoing cataract extraction with lens replacement (CELR); assay: Phase 3: Ramsay sedation scale (RSS) scores; conditions: ITT analysis set
Source text: The RSS scores are summarized for: the baseline, just prior to the start of surgery, the minimum and maximum preoperative score, the minimum and maximum intraoperative score, the minimum and maximum postoperative score, and the maximum overall score.

[4] = test system: subjects undergoing cataract extraction with lens replacement (CELR); assay: Phase 3: intraoperative supplemental analgesia; conditions: intention-to-treat analysis set
[5] = test system: subjects undergoing cataract extraction with lens replacement (CELR); assay: Phase 3: surgeon satisfaction (5-point Likert scale); design: key to Surgeon Satisfaction Scores, Min / Surgeon Satisfaction Scores, Max: 5=very satisfied; 4=satisfied; 3=neither satisfied nor dissatisfied; 2=dissatisfied; 1=very dissatisfied; conditions: ITT analysis set
Procedure: (§1) Surgeon satisfaction with the operative experience was measured postoperatively on Day 1 using a 5-point Likert scale (5=very satisfied; 4=satisfied; 3=neither satisfied nor dissatisfied; 2=dissatisfied; 1=very dissatisfied). […] The means were compared using 2-sample t-tests and the Satterthwaite method. The proportion of satisfied responses (‘Very Satisfied’ or ‘Satisfied’, pooled) were tested using a Pearson's chi-square test; and a Fisher's exact test was used instead if any expected values were <5.

[6] = test system: subjects undergoing cataract extraction with lens replacement (CELR); assay: Phase 3: patient satisfaction (5-point Likert scale); design: key to Patient Satisfaction Scores, Min / Patient Satisfaction Scores, Max: 5=very satisfied; 4=satisfied; 3=neither satisfied nor dissatisfied; 2=dissatisfied; 1=very dissatisfied; conditions: ITT analysis set
Procedure: as §1, with “Patient” for “Surgeon”, “at the Follow-Up visit” for “postoperatively on Day 1”

[7] = Just prior to the start of surgery

`Cc1ncc2n1-c1ccc(Cl)cc1C(c1ccccc1F)=NC2` [Midazolam, 8-chloro-6-(2-fluorophenyl)-1-methyl-4H-imidazo[1,5-a][1,4]benzodiazepine] was tested, and the “Requirement for rescue sedation medication - %” value (shortened to “Requirement … - %”) ([1]; All-Treated Analysis Set) was 33.7%, the “Requirement for rescue sedation medication - n” value (“Requirement … - n” for short) ([1]; All-Treated Analysis Set) was 30 and the “Requirement … - %” value ([1]; ITT Analysis Set) was 33.7%. For the same compound, the “Requirement … - n” value ([1]; ITT Analysis Set) was 30, the “Subjects who required rescue sedation medication” value ([1]; ITT analysis set, preoperative or intraoperative period) was 33.7% and the “Requirement … - %” value ([1]; PP Analysis Set) was 33.7%. For the same compound, the “Requirement … - n” value ([1]; PP Analysis Set) was 30, the “Subjects who required rescue sedation medication” value ([1]; PP analysis set) was 33.7% and the “Subjects who required rescue sedation medication” value ([1]; all-treated analysis set) was 33.7%. For the same compound, the “Preoperative procedural sedation responder - %” value ([2]; All-Treated Analysis Set) was 73.0%, the “Preoperative procedural sedation responder - n” value ([2]; All-Treated Analysis Set) was 65 and the “Preoperative procedural sedation responder - %” value ([2]; ITT Analysis Set) was 73.0%. The “Preoperative procedural sedation responder - n” value ([2]; ITT Analysis Set) was 65, the “Preoperative procedural sedation responders” value ([2]; ITT analysis set) was 73.0% and the “Preoperative procedural sedation responder - %” value ([2]; PP Analysis Set) was 73.0%. The “Preoperative procedural sedation responder - n” value ([2]; PP Analysis Set) was 65, the “Preoperative procedural sedation responders” value ([2]; PP analysis set) was 73.0% and the “Preoperative procedural sedation responders” value ([2]; all-treated analysis set) was 73.0%. For the same compound, the “Ramsay sedation scale score 1, number of subjects” value ([3]; Baseline) was 89, the “Ramsay sedation scale score 1, percent of subjects (in parentheses)” value (“Ramsay sedation scale score 1, percent” below) ([3]; Baseline) was “(100.0)” and the “Ramsay sedation scale score 2-3, number of subjects” value ([3]; Baseline) was 0. The “Ramsay sedation scale score 4, number of subjects” value ([3]; Baseline) was 0, the “Ramsay sedation scale score 5+, number of subjects” value ([3]; Baseline) was 0 and the “Ramsay sedation scale: Prior rescue sedation medication given, number of subjects” value ([3]; Baseline) was 0. For the same compound, the “Ramsay sedation scale score 1, number of subjects” value [3, 7] was 7, the “Ramsay sedation scale score 1, percent” value [3, 7] was “(7.9)” and the “Ramsay sedation scale score 2-3, number of subjects” value [3, 7] was 65. For the same compound, the “Ramsay sedation scale score 2-3, percent of subjects (in parentheses)” value (from here on “Ramsay sedation scale score 2-3, percent”) [3, 7] was “(73.0)”, the “Ramsay sedation scale score 4, number of subjects” value [3, 7] was 0 and the “Ramsay sedation scale score 5+, number of subjects” value [3, 7] was 0. The “Ramsay sedation scale: Prior rescue sedation medication given, number of subjects” value [3, 7] was 17, the “Ramsay sedation scale: Prior rescue sedation medication given, percent of subjects (in parentheses)” value [3, 7] was “(19.1)” and the “Ramsay sedation scale score 1, number of subjects” value ([3]; Maximum intraoperative score) was 4. For the same compound, the “Ramsay sedation scale score 1, percent” value ([3]; Maximum intraoperative score) was “(4.5)”, the “Ramsay sedation scale score 2-3, number of subjects” value ([3]; Maximum intraoperative score) was 60 and the “Ramsay sedation scale score 2-3, percent” value ([3]; Maximum intraoperative score) was “(67.4)”. For the same compound, the “Ramsay sedation scale score 4, number of subjects” value ([3]; Maximum intraoperative score) was 0, the “Ramsay sedation scale score 5+, number of subjects” value ([3]; Maximum intraoperative score) was 0 and the “Ramsay sedation scale: Prior rescue sedation medication given, number of subjects” value ([3]; Maximum intraoperative score) was 25. The “Ramsay sedation scale: Prior rescue sedation medication given, percent of subjects (in parentheses)” value ([3]; Maximum intraoperative score) was “(28.1)”, the “Ramsay sedation scale score 1, number of subjects” value ([3]; Maximum postoperative score) was 45 and the “Ramsay sedation scale score 1, percent” value ([3]; Maximum postoperative score) was “(50.6)”. For the same compound, the “Ramsay sedation scale score 2-3, number of subjects” value ([3]; Maximum postoperative score) was 14, the “Ramsay sedation scale score 2-3, percent” value ([3]; Maximum postoperative score) was “(15.7)” and the “Ramsay sedation scale score 4, number of subjects” value ([3]; Maximum postoperative score) was 0. For the same compound, the “Ramsay sedation scale score 5+, number of subjects” value ([3]; Maximum postoperative score) was 0, the “Ramsay sedation scale: Prior rescue sedation medication given, number of subjects” value ([3]; Maximum postoperative score) was 29 and the “Ramsay sedation scale: Prior rescue sedation medication given, percent of subjects (in parentheses)” value ([3]; Maximum postoperative score) was “(32.6)”. The “Ramsay sedation scale score 1, number of subjects” value ([3]; Maximum preoperative score) was 22, the “Ramsay sedation scale score 1, percent” value ([3]; Maximum preoperative score) was “(24.7)” and the “Ramsay sedation scale score 2-3, number of subjects” value ([3]; Maximum preoperative score) was 67. For the same compound, the “Ramsay sedation scale score 2-3, percent” value ([3]; Maximum preoperative score) was “(75.3)”, the “Ramsay sedation scale score 4, number of subjects” value ([3]; Maximum preoperative score) was 0 and the “Ramsay sedation scale score 5+, number of subjects” value ([3]; Maximum preoperative score) was 0. For the same compound, the “Ramsay sedation scale: Prior rescue sedation medication given, number of subjects” value ([3]; Maximum preoperative score) was 0, the “Ramsay sedation scale score 1, number of subjects” value ([3]; Maximum score overall) was 22 and the “Ramsay sedation scale score 1, percent” value ([3]; Maximum score overall) was “(24.7)”. The “Ramsay sedation scale score 2-3, number of subjects” value ([3]; Maximum score overall) was 67, the “Ramsay sedation scale score 2-3, percent” value ([3]; Maximum score overall) was “(75.3)” and the “Ramsay sedation scale score 4, number of subjects” value ([3]; Maximum score overall) was 0. For the same compound, the “Ramsay sedation scale score 5+, number of subjects” value ([3]; Maximum score overall) was 0, the “Ramsay sedation scale: Prior rescue sedation medication given, number of subjects” value ([3]; Maximum score overall) was 0 and the “Ramsay sedation scale score 1, number of subjects” value ([3]; Minimum intraoperative score) was 4. The “Ramsay sedation scale score 1, percent” value ([3]; Minimum intraoperative score) was “(4.5)”, the “Ramsay sedation scale score 2-3, number of subjects” value ([3]; Minimum intraoperative score) was 60 and the “Ramsay sedation scale score 2-3, percent” value ([3]; Minimum intraoperative score) was “(67.4)”. For the same compound, the “Ramsay sedation scale score 4, number of subjects” value ([3]; Minimum intraoperative score) was 0, the “Ramsay sedation scale score 5+, number of subjects” value ([3]; Minimum intraoperative score) was 0 and the “Ramsay sedation scale: Prior rescue sedation medication given, number of subjects” value ([3]; Minimum intraoperative score) was 25. The “Ramsay sedation scale: Prior rescue sedation medication given, percent of subjects (in parentheses)” value ([3]; Minimum intraoperative score) was “(28.1)”, the “Ramsay sedation scale score 1, number of subjects” value ([3]; Minimum postoperative score) was 49 and the “Ramsay sedation scale score 1, percent” value ([3]; Minimum postoperative score) was “(55.1)”. For the same compound, the “Ramsay sedation scale score 2-3, number of subjects” value ([3]; Minimum postoperative score) was 10, the “Ramsay sedation scale score 2-3, percent” value ([3]; Minimum postoperative score) was “(11.2)” and the “Ramsay sedation scale score 4, number of subjects” value ([3]; Minimum postoperative score) was 0. For the same compound, the “Ramsay sedation scale score 5+, number of subjects” value ([3]; Minimum postoperative score) was 0, the “Ramsay sedation scale: Prior rescue sedation medication given, number of subjects” value ([3]; Minimum postoperative score) was 29 and the “Ramsay sedation scale: Prior rescue sedation medication given, percent of subjects (in parentheses)” value ([3]; Minimum postoperative score) was “(32.6)”. For the same compound, the “Subjects who received intraoperative supplemental analgesia” value [4] was 1.1%, the “Surgeon Satisfaction Scores, Max” value ([5]; 5-point Likert scale) was 5 and the “Surgeon Satisfaction Scores, Mean ± SD” value ([5]; 5-point Likert scale) was 4.8 ± 0.56. For the same compound, the “Surgeon Satisfaction Scores, Median” value ([5]; 5-point Likert scale) was 5.0, the “Surgeon Satisfaction Scores, Min” value ([5]; 5-point Likert scale) was 2 and the “Surgeon Satisfaction Score 1 = Very Dissatisfied” value [5] was 0 n. For the same compound, the “Patient Satisfaction Scores, Max” value ([6]; 5-point Likert scale) was 5, the “Patient Satisfaction Scores, Mean ± SD” value ([6]; 5-point Likert scale) was 4.8 ± 0.55 and the “Patient Satisfaction Scores, Median” value ([6]; 5-point Likert scale) was 5.0. For the same compound, the “Patient Satisfaction Scores, Min” value ([6]; 5-point Likert scale) was 2 and the “Patient Satisfaction Score 1 = Very Dissatisfied” value [6] was 0 n.
